Laboratory results: patent US7659278B2, “Use of low molecular weight compounds for preparing a medicament useful in treating mutant p53 mediated diseases” (Aprea AB, priority 2002, dated 2010)

Columns and labels:
Saos-2-His-273 cells [1] = assay: Colony formation assay, Saos-2-His-273; type: cell-based, human
Description: Colonies were stained with Giemsa and counted 14 days after seeding.
The cells were Giemsa stained and scored for the appearance of colonies after 14 days.

[2] = system: human tumour cell lines with different p53 status (p53 null, wild type p53, mutant p53); assay: WST-1 growth suppression in cell lines with different p53 status; type: cell-based; conditions: mutant p53 vs p53 null and wild type p53 cell lines
Experimental: The degree of WST-1 reduction, which reflects a number of living cells, was measured by microplate reader at λ490 nm according to manufacturer (Roche). The growth suppression was calculated as a difference in absorbance at λ 490 nm between untreated and treated cells and expressed in a percent from untreated control. Growth suppression=100%×(control absorbance−treated absorbance)/control absorbance. […] The experimental set up was as described in FIG. 2A.
The human cell lines were as follows. p53 null: Saos-2 osteosarcoma, K562 acute myeloid leukemia, and HL60 promyelocytic leukemia Wild type p53 expressing cells: NHF normal human fibroblasts, HeLa cervical carcinoma (carries HPV E6 protein, leading to p53 degradation), U2OS osteosarcoma, and EBV-positive IARC 171 lymphoblastoid cell line. […] In addition, mouse p53 null J3D T-cell lymphoma line was used.

Saos-2-His-273 cells [3] = assay: Apoptosis induction by FACS (sub-G1, propidium iodide), Saos-2-His-273; type: cell-based, human; conditions: for time to apoptosis induction after treatment: data not shown; for p53 dependence of apoptosis induction: presence or absence of doxycyclin
Experimental: Induction of apoptosis was determined by FACS analysis of ethanol fixed cells stained with propidium iodide (PI) as percentage of a sub-G1 population. […] The percentage of dead cells in non-treated cultures and in controls treated with caspase inhibitors only was subtracted. […] Hoechst staining was used to stain cell nuclei.
(§1) Cells were placed on 12-well plate at a density of 30000/cm^2 and treated with compounds. After 48 h incubation cells were harvested by trypsinization, fixed with 70% ethanol, treated with RNase A (0.25 mg/ml) and stained with propidium iodide (0.02 mg/ml). Samples were analyzed on a Becton Dickinson FACScan. Data were analyzed by the CellQuest software, version 3.2.1.
Induction of cell death was determined by FACS analysis of ethanol-fixed cells stained with propidium iodide (PI) as percentage of sub-G1 population.

[4] = system: KRC/Y renal carcinoma cells (Phe-176 mutant p53); assay: Apoptosis induction by FACS, KRC/Y cells; type: cell-based, human; conditions: MIRA-1 50 μM, PRIMA-1 75 μM
Experimental: The percentage of apoptotic cells was detected by FACS analysis as it was described in FIG. 3A.
as §1
Thus, it appears that the defect caused by substitution of the Cys residue at position 176 is irreversible. The substitution of this Cys residue abolishes the binding of a Zn atom which holds together the DNA-binding loops of the p53 core domain. Therefore, the unfolding of this mutant p53 protein is probably too extensive to be restored.

[5] = target: T1, GST-wild type p53 protein (Homo sapiens, UniProt P04637); assay: ELISA of p53 conformation epitopes (PAb1620, PAb240, DO-1), recombinant protein; type: biochemical; conditions: for appearance of PAb240 epitope (unfolding) upon heating: heating at 37° C.; for preservation of PAb 1620 epitope upon heating: recombinant wild type and mutant p53 proteins, 30 min at 37° C.
T1 construct: made in house
T1 sequence (P04637 whole entry): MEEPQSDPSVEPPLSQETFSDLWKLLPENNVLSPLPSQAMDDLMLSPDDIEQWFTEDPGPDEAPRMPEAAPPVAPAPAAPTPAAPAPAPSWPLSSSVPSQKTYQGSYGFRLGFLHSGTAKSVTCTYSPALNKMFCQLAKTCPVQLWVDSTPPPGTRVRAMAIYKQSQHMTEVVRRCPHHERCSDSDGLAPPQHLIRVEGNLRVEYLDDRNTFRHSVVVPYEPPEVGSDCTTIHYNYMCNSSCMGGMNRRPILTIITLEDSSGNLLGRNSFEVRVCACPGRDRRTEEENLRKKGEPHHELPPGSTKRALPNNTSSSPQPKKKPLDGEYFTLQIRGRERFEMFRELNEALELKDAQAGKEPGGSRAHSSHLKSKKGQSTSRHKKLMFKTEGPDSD
Experimental: Absorbance of the control sample incubated on ice was taken as 100%.
The procedure was performed with or without tested compounds. The ELISA analyses were done as described by (Foster et al., 1999). Briefly, after the treatment, samples were diluted with coating buffer (150 mM KCL, 25 mM HEPES) supplemented with 10 mM DTT. The whole mixture was apply to ELISA plates (MaxiSorp, Nunc) and incubated at +4° C. for 35 min. The wells were washed with coating buffer. The wells were blocked by 5% skim milk in PBS by incubating at +4° C. for 1 h. Wells were rinsed twice with PBS followed by addition of mouse primary antibodies (PAb 1620 or PAb 240) diluted 1:250 in coating buffer. Samples were incubated at +4° C. for 30 min. Wells were rinsed twice with PBS. After that, a secondary antibody (anti-mouse, conjugated with horse radish peroxidase) was incubated with samples at +4° C. for 30 min. Then plates were washed 5 times with PBS and a peroxidase substrate was added. An absorbance at λ405 nm was monitored by ELISA reader.

[6] = system: endogenous mutant p53 proteins; type: biochemical, human; conditions: cell extracts of human tumor cell lines, band shift
Experimental: PAb421 antibody was added to all reaction mixtures. […] Monoclonal antibody PAb421 was added to the reaction mixtures in lanes 2-8; PAb1801 was added to the reaction mixtures in lanes 9-15.
(§2) The GST-p53 proteins were prepared as described (Selivanova et al., 1997). Band shift assays were performed in binding buffer containing 100 mM HEPES pH 7.5, 50 mM KCl, 1 mg/ml BSA, 0.1% Triton X-100, 2 mM MgC12 and 1 mM DTT essentially as in (Selivanova et al., 1996).

SKOV-His-175 cells = assay: WST-1 proliferation assay, SKOV-His-175 cells (cycloheximide, His-175-22/23 comparison); type: cell-based, human; conditions: for increase in cell survival after cycloheximide pretreatment: cycloheximide before compound, WST-1
[7] = system: p53-responsive PG-luciferase reporter in Saos-2-His-273 cells; assay: PG-luciferase p53 reporter assay in Saos-2-His-273; type: cell-based, human
Experimental: Transactivation assays using p53-responsive promoter constructs linked to the luciferase reporter gene (PG-luc) were performed by the Dual Luciferase Reporter Assay System (Promega) according to the manufacturer. […] A luciferase activity was assayed 1; 3.5 and 15 hours post-treatment.
Whereas compound MIRA-1 stimulated luciferase expression 2-fold already after 3.5 hours, 2-fold induction by compound PRIMA-I was achieved only after 15 hours of treatment.

[8] = system: p21 and MDM2 in H1299-His-175 cells; assay: Western blot of p53 target genes p21 and MDM2, H1299-His-175; type: cell-based, human
[9] = system: MDM2 and p21 in SW480 colon carcinoma cells (endogenous His-273 mutant p53); assay: Western blot of MDM2 and p21, SW480; type: cell-based, human
Experimental: The expression of proteins was analyzed using Western blot. […] FIG. 10C pictures induction of p53 target genes in PRIMA-1-treated SW480 colon carcinoma cells carrying endogenous His-273/Ser-309 mutant p53.

[10] = target: T1, GST-wild type p53 protein; assay: Band shift assay, heat-inactivated GST-wild type p53; type: biochemical; conditions: protein inactivated at 37° C. for 30 min
Experimental: Lane 3, inactivation of DNA binding of wtp53 by heating.
as §2
Therefore, the restoration of the DNA binding of this mutant was regarded as an exceptionally difficult task.

[11] = recombinant protein treated with compound
[12] = absence of mutant p53 expression
[13] = cells expressing mutant p53, PRIMA-1 25 μM, MIRA-1 10 μM

SMILES | number of colonies, of untreated control (Saos-2-His-273 cells [1]; 5 μM, colonies counted after 14 days) | growth suppression by p53 status [2] | time to apoptosis induction after treatment (Saos-2-His-273 cells [3]) | p53 dependence of apoptosis induction (Saos-2-His-273 cells [3]) | induction of apoptosis [4] | appearance of PAb240 epitope (unfolding) upon heating [5] | increase in PAb1620+ fraction [5, 11] | reduction in PAb240+ fraction [5, 11] | preservation of PAb 1620 epitope upon heating [5] | mutant p53 proteins with restored specific DNA binding [6] | sensitivity of SKOV-His-175 cells in comparison with SKOV-His-175-22/23 cells (SKOV-His-175 cells; after compound treatment) | increase in cell survival after cycloheximide pretreatment (SKOV-His-175 cells) | stimulation of luciferase expression ([7]; after 3.5 hours) | induction of MDM2 and p21 [8, 12] | induction of MDM2 and p21 [8, 13] | induction of MDM2 and p21 [9] | restoration of specific DNA binding after heat inactivation [10] | doses inhibitory in a mutant p53-dependent manner (Saos-2-His-273 cells [1]; colony formation, 14 days) | DO-1+ fraction [5, 11] | induction of luciferase expression ([7]; after 15 hours of treatment)
CCCOCN1C(=O)C=CC1=O [MIRA-1, 1-(propoxymethyl)-maleimide] | 15% | suppressed the growth of mutant p53-expressing cells more efficiently then p53 null and wild type p53 containing cells | 6 to 12 h | occurred only in the presence of p53 expression | much less prominent as compared to Saos-2-His-273 cells | able to prevent unfolding of p53 proteins | About 40% | −20% | preserve the conformation-dependent epitope for PAb 1620 antibody | 3 out of 14 | at least 3 fold | about 4 fold | 2 fold | did not cause any induction of MDM2 nor p21 | solid induction of both MDM2 and p21 | induced MDM2 and p21 | able to restore the specific DNA binding of the GST-wild type p53 protein |  |  | 
O=C1C2CCN(CC2)C1(CO)CO [PRIMA-1, 2,2-bis(hydroxymethyl)-1-azabicyclo[2.2.2]octan-3-one] |  | suppressed the growth of mutant p53-expressing cells more efficiently then p53 null and wild type p53 containing cells | 48 h | occurred only in the presence of p53 expression | much less prominent as compared to Saos-2-His-273 cells | able to prevent unfolding of p53 proteins | 40% | corresponding decrease | preserve the conformation-dependent epitope for PAb 1620 antibody | 13 out of 14 |  | 4 fold |  | did not cause any induction of MDM2 nor p21 | solid induction of both MDM2 and p21 | induced MDM2 and p21 | able to restore the specific DNA binding of the GST-wild type p53 protein | 50 to 100 µM | remained unchanged | 2 fold
